Test results taken from patent US10071981B2, “Method of priming plants against abiotic stress factors” (Research Foundation of The City University of New York, priority 2014, dated 2018).

How the values were obtained:
Assay type in all cases: in vivo
Medicago sativa plants [1] = test: Lipid peroxidation (leaf MDA/TBARS content) in drought-stressed plants; conditions: FIG. 13
Procedure: (§1) Mature (42 d) Medicago sativa plants were used for the purposes of this study. These were grown in soil medium under controlled, optimal growth conditions and were then subjected to drought stress. Drought was imposed by withholding watering until drought symptoms (loss of turgour, wilting, chlorosis) were observed (6 d after stress imposition). Samples were then re-watered to observe recovery potential after 1 day (7 d). Both NOSH and NOSH-aspirin were applied at 100 μM concentration by foliar spraying at the start of stress imposition. The hybrid donors were diluted in 30% (v/v) methanol. Physiological parameters (stomatal conductance and chlorophyll fluorescence) were measured with a DT-Porometer AP4 (Delta-TDevices, Cambridge, UK) and an OptiSci OS-30p chlorophyll fluorometer (Opti-Sciences, Hudson, N.H., USA) respectively (Filippou et al., 2013). Chlorophyll fluorescence (Fv/Fm) of leaves represents the maximum photochemical efficiency of photosystem II (PSII). Cellular damage was evaluated by lipid peroxidation levels (TBARS content), nitric oxide (NO) content (nitrosative stress) and hydrogen peroxide (H2O2) content (oxidative stress) as previously described (Filippou et al., 2011; Tanou et al., 2012), while osmoprotective capacity was evaluated by proline content (ninhydrin assay) as previously described (Antoniou et al., 2013). Antioxidant enzyme activities (SOD and CAT) were measured as previously described (Filippou et al., 2014). Real-time RT-PCR gene expression analysis was carried out using a Biorad IQ5 thermocycler as previously described (Filippou et al., 2013). Relative quantification of gene expression and statistical analysis of all qRT-PCR data (pairwise fixed reallocation randomization test) were performed using the REST software according to Pfaffl et al. (2002). The actin 11 gene was used as a housekeeping reference gene. All analyses were carried out using three independent biological pools of samples as replicates (with a minimum of fifteen independent plants per pooled sample). The experimental setup is shown schematically in FIG. 8.
(§2) An examination of cellular damage levels was performed by means of spectrophotometric determination of lipid peroxidation.

[2] = system: Medicago truncatula plants; test: as above; conditions: for leaf MDA content (lipid peroxidation): diluted in 70% (v/v) MetOH, FIG. 1
Excerpt: Cellular damage in leaves can be measured by determining lipid peroxidation (Malondialdehyde [MDA] content) and hydrogen peroxide (H2O2) levels. Lipid peroxidation is a widely used stress indicator of plant membranes. For example, the method described by Heath and Packer is the basic protocol used or adapted in numerous studies dealing with lipid peroxidation. See Heath R L, Packer L. 1968, Photoperoxidation in isolated chloroplasts. I. Kinetics and stoichiometry of fatty acid peroxidation. Archives in Biochemistry and Biophysics 125, 189-198. Measuring hydrogen peroxide levels is also well known in the art.
Mature (40 d) Medicago truncatula ecotype Jemalong A17 plants were used for the purposes of this study. These were grown in soil medium under controlled, optimal growth conditions and were then subjected to drought stress. Drought was imposed by withholding watering for 9 d (for detailed growth and stress conditions see Filippou et al., 2011). Both NOSH and NOSH-aspirin were applied at 100 μM concentration by foliar spraying at the start of stress imposition. The hybrid donors were diluted in 70% (v/v) and 30% (v/v) methanol, 20% (v/v) acetone or 20% (v/v) DMSO. Cellular damage was evaluated by lipid peroxidation levels (TBARS content) and hydrogen peroxide (H2O2) content as previously described (Filippou et al., 2011; Tanou et al., 2012), while osmoprotective capacity was evaluated by proline content (ninhydrin assay) as previously described (Antoniou et al., 2013). Real-time RT-PCR gene expression analysis was carried out using a Biorad IQ5 thermocycler as previously described (Filippou et al., 2013b). Relative quantification of gene expression and statistical analysis of all qRT-PCR data (pairwise fixed reallocation randomization test) were performed using the REST software according to Pfaffl et al. (2002). The actin 11 gene was used as a housekeeping reference gene. All analyses were carried out using three independent biological pools of samples as replicates (with a minimum of three independent plants per pooled sample).
as §2

[3] = system: Medicago truncatula plants; test: Proline content (ninhydrin assay) in leaves of drought-stressed plants; conditions: 100 μM, 30% (v/v) MetOH; vs drought-stressed alone samples; FIG. 6
Procedure: Mature (40 d) Medicago truncatula ecotype Jemalong A17 plants were used for the purposes of this study. These were grown in soil medium under controlled, optimal growth conditions and were then subjected to drought stress. Drought was imposed by withholding watering for 9 d (for detailed growth and stress conditions see Filippou et al., 2011). Both NOSH and NOSH-aspirin were applied at 100 μM concentration by foliar spraying at the start of stress imposition. The hybrid donors were diluted in 70% (v/v) and 30% (v/v) methanol, 20% (v/v) acetone or 20% (v/v) DMSO. Cellular damage was evaluated by lipid peroxidation levels (TBARS content) and hydrogen peroxide (H2O2) content as previously described (Filippou et al., 2011; Tanou et al., 2012), while osmoprotective capacity was evaluated by proline content (ninhydrin assay) as previously described (Antoniou et al., 2013). […] Relative quantification of gene expression and statistical analysis of all qRT-PCR data (pairwise fixed reallocation randomization test) were performed using the REST software according to Pfaffl et al. (2002). […] In addition, proline content was evaluated as proline is a major osmoprotective molecule involved in the defense response of plants to abiotic stress conditions (Filippou et al., 2013b).

Medicago sativa plants [4] = test: as above; conditions: 100 μM; vs drought-stressed alone samples; FIG. 15
Procedure: as §1, with “Antioxidant enzyme activities (SOD and CAT) were measured as previously described (Filippou et al., 2014). Real-time RT-PCR gene expression analysis was carried out using a Biorad IQ5 thermocycler as previously described (Filippou et al., 2013). Relative quantification of gene expression and statistical analysis of all qRT-PCR data (pairwise fixed reallocation randomization test) were performed using the REST software according to Pfaffl et al. (2002). The actin 11 gene was used as a housekeeping reference gene. All analyses were carried out using three independent biological pools of samples as replicates (with a minimum of fifteen independent plants per pooled sample). The experimental setup is shown schematically in FIG. 8.” left out

[5] = system: Medicago truncatula plants; test: Real-time RT-PCR gene expression in leaves of drought-stressed plants; conditions: pre-treated and stressed vs stressed alone plants; 30% MetOH; FIG. 7
[6] = 100 μM, 6 d drought, vs drought-stressed samples
[7] = 100 μM foliar spraying, drought 9 d

| SMILES | MDA content (lipid peroxidation) (Medicago sativa plants [1]; [6]) | MDA content (lipid peroxidation) (Medicago sativa plants [1]; 7 d (after rewatering)) | lipid peroxidation levels (leaf MDA content) ([2]; 100 μM foliar spraying, 30% (v/v) MetOH, drought 9 d, vs drought-stressed control, FIG. 2) | leaf MDA content (lipid peroxidation) [2, 7] | lipid peroxidation levels ([2]; 100 μM, solvent 20% DMSO or 20% acetone (solvent itself toxic)) | proline content [3] | proline content (Medicago sativa plants [4]) | FeSOD relative gene expression [5] | P5CR relative gene expression [5] | P5CS relative gene expression [5] | cAPX relative gene expression [5] |
| --- | --- | --- | --- | --- | --- | --- | --- | --- | --- | --- | --- |
| O=C(CCCO[N+](=O)[O-])Oc1ccccc1C(=O)Oc1ccc(-c2cc(=S)ss2)cc1 [NOSH-A] | statistically significant protection | maintained low MDA content levels close to those of control, watered samples | significantly lower lipid peroxidation levels | statistically significant protection | lower lipid peroxidation levels | increased proline content | significantly lower proline content | significant induction | significant induction | significant induction | significant suppression |
| O=C(CCCO[N+](=O)[O-])Oc1ccc(-c2cc(=S)ss2)cc1 [NOSH] | statistically significant protection | maintained low MDA content levels close to those of control, watered samples |  | lowered |  |  | significantly lower proline content |  |  |  |  |
